Here are results for one compound from article PMC3984256, “A PCNA-Derived Cell Permeable Peptide Selectively Inhibits Neuroblastoma Cell Growth” (PLoS ONE, 2014).

The structures appear in SMILES notation. Where a SMILES comes first, the peptide text is derived from it. [ ]: non-standard residue; d: D form.

Assay [1] concerns SK-N-BE(2)c cells. The experiment in a line: Clonogenic assay. It is filed as cell-based, human. The conditions noted are these: 3 dishes averaged. The protocol:
Three hundred fifty SK-N-BE(2)c cells were seeded onto a 60-mm tissue culture dish. Once attached overnight, cells were treated with or without cisplatin for 2 h. Cells were washed twice with growth medium and were cultured in fresh medium with or without R9-caPep for 3 weeks to allow colony formation. The medium was changed every 3 d. The colonies formed under each treatment conditions were counted after being stained with 0.5% crystal violet.

For assay [2], the system named is ãH2A.X level. The experiment in a line: γH2A.X western blot after γ-irradiation. The class given is cell-based. The settings on record: 30 µM peptide, 2 h pretreatment, 5 Gy. The protocol: (§1) To study DNA damage and repair, attached cells were pretreated with the peptides for 2 h and were then ã-irradiated (5 Gy). After irradiation, cells were cultured in the presence of the peptides for the indicated time. For analyzing ãH2A.X foci formation, cells were fixed in a solution of methanol and acetone (70%:30% v/v) for 15 min at −20°C. The slides were air-dried for storage and rehydrated in PBS prior to immunostaining. Cells were stained by a mouse monoclonal antibody specific to ãH2A.X (Millipore, Billerica, MA) followed by an Alexa Fluor 488 conjugated anti-mouse IgG antibody. For analyzing Rad51 foci formation, cells were fixed in PBS buffered 4% paraformaldehyde at room temperature for 15 min. After being washed twice by PBS, cells were permeabilized in PBS containing 0.5% triton for 15 min on ice. The fixed and permeabilized cells were stained with a rabbit polyclonal antibody raised against the human Rad51 (Santa Cruz) followed by an Alexa Fluor 488 conjugated anti-rabbit IgG antibody. Stained cells were visualized and imaged by a confocal microscope.
Cell extracts were prepared by dissolving cell pellets directly into the Laemmli sample buffer and resolved in a 4–12% SDS polyacrylamide gel. Resolved proteins were blotted onto a nitrocellulose membrane. The membrane was blocked with 5% nonfat dry milk and incubated with an antibody specific to ãH2A.X (Millipore), total H2A.X (Cell Signaling Technology, Danvers, MA), MYCN (Cell Signaling Technology), or actin (Sigma) in the blocking buffer. After incubation with peroxidase-conjugated secondary antibodies, the protein of interest was detected using an ECL kit purchased from GE Healthcare.

Assay [3] has as its system Rad51 foci in SK-N-BE(2)c cells. The experiment in a line: Rad51 foci immunofluorescence after γ-irradiation. It is filed as cell-based, human. The settings on record: 2 h peptide pretreatment, 5 Gy. The protocol: as §1
For assay [4], the system named is SK-N-BE(2)c cells. The experiment in a line: Cell cycle analysis by PI flow cytometry, SK-N-BE(2)c. The class given is cell-based, human. The protocol: Cells were seeded at 1×10^5/ml. Once attached, cells were treated with or without R9-caPep for 48 hours. Cells were fixed in 60% ethanol and stained with propidium iodide (PI). The cellular PI fluorescence intensity was determined by flow cytometry. The flow cytometry data were analyzed by the FlowJo program to model various cell populations.

In assay [5] the test system is PCNA and LIGI co-localization in SK-N-AS NB cells. Nature of the assay: PCNA/LIGI co-localization, immunofluorescence. The conditions noted are these: synchronized, 30 µM peptide 6 h after mimosine release. It is filed as cell-based, human. The protocol:
Cells were seeded at 1×10^5/ml onto a chamber slide and were allowed to attach overnight. To analyze the interaction of PCNA with FEN1, LIGI, or Pol ä, we first synchronize cells at the G1/S boundary. The synchronization is achieved by starving cells in medium containing 0.25% FBS for 24 h. Cells were further cultured in the complete medium containing 400 µM of mimosine for 24 h. To release cells into S phase, cells were washed and incubated in mimosine-free medium containing 30 µM R9-caPep or R9-srbPep for 6 h. We pre-determined that the majority of cells were in the S-phase 6 h after mimosine was removed (data not shown). Cells were fixed in ice-cold methanol:acetone (50%:50%) for 10 min or in 4% paraformaldehyde for 20 min at room temperature. Cells were incubated with a goat polyclonal anti-PCNA antibody (Santa Cruz) and a mouse monoclonal anti-FEN1 antibody (Santa Cruz), a mouse anti-POLD3 antibody (Sigma, St. Louis, MO), or a mouse anti-LIGI antibody (Abcam, Cambridge, MA) for 1 h at room temperature. After being washed with PBS, cells were incubated with Alexa Fluor 488 conjugated anti-mouse IgG and Alexa Fluor 555 conjugated anti-goat IgG antibodies (Invitrogen, Grand Island, NY) for 1 h. Cells were mounted in Vectashield with DAPI (Vector Labs, Burlingame, CA) and visualized by a confocal microscope.

On to `CC[C@H](C)[C@H](NC(=O)CNC(=O)[C@H](CC(C)C)NC(=O)[C@H](CS)NC(=O)[C@H](CS)NC(=O)[C@@H](CCCNC(=N)N)NC(=O)[C@@H](CCCNC(=N)N)NC(=O)[C@@H](CCCNC(=N)N)NC(=O)[C@@H](CCCNC(=N)N)NC(=O)[C@@H](CCCNC(=N)N)NC(=O)[C@@H](CCCNC(=N)N)NC(=O)[C@@H](CCCNC(=N)N)NC(=O)[C@@H](CCCNC(=N)N)NC(=O)[C@H](N)CCCNC(=N)N)C(=O)N1CCC[C@H]1C(=O)N[C@@H](CCC(=O)O)C(=O)N[C@@H](CCC(N)=O)C(=O)N[C@@H](CCC(=O)O)C(=O)N[C@@H](Cc1ccc(O)cc1)C(=O)O` [R9-caPep] (H-[dR][dR][dR][dR][dR][dR][dR][dR][dR]CCLGIPEQEY-OH; N-terminus and C-terminus assumed), for which the “reduction of number of colonies, sequential cisplatin then R9-caPep” value in assay [1] (1 µM cisplatin 2 h, then 20 µM R9-caPep 3 weeks) was “about 80%”. Moreover, the “reduction of number of colonies, single agent” value in assay [1] (R9-caPep alone 20 µM 3 weeks, or cisplatin alone 1 µM 2 h) is on record as “less than 30%”. Besides, in assay [2], the “ãH2A.X level within 30 min after irradiation” value was “increased within 30 min following ã-irradiation in cells treated with either peptide”. The “ãH2A.X level 48 h after irradiation” value in assay [2] (48 h) is recorded as “remained elevated”. In assay [3] (4 h after irradiation), the “number of Rad51-positive cells at 4 h” value was “reduced the number of Rad51-positive cells at 4 h after ã-irradiation”. Besides, in assay [3] (48 h after irradiation), the “Rad51 background staining at 48 h” value was “strong and diffused background staining of Rad51”; the “Rad51 foci at 48 h” value is listed as “Rad51 foci remain visible”. In assay [4] (NB cells (SK-N-BE(2)c), 48 h, 20 or 40 µM), the cell cycle arrest entry is given as “caused S-phase arrest in NB cells”. In assay [4] (SK-N-BE(2)c, 40 µM, 48 h), the “apoptosis: sub-G1 cell population” value is reported as “rise of a sub-G1 cell population”. In assay [4] (treatment longer than 6 h (Fig. 3c, 48 h)), the “relative abundance of cells in S-phase, longer treatment” value is given as “increased the relative abundance of cells in S-phase”. Also, in assay [5], the “LIGI co-localization with PCNA foci” value is listed as “largely blocked”.
